Among the test systems are SK-MEL-5 melanoma; HOP-62 NSCLC; U251 CNS; OVCAR-8 ovarian; IGROV1 ovarian; UACC-62 melanoma; LOX IMVI melanoma; SNB-75 CNS; HOP-92 NSCLC; SN12C renal.
Holding throughout (test): NCI-60 cell line screen, 48 h

“And” between values parts separate entries of the source, which are not always exact repeats. Equal values may be shown once.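 Step 1: Grow cells in 96-well plates. Step 2: Expose to compound for 48 hours at 5 concentrations. Step 3: Interpolate endpoints linearly; if unreached, use highest concentration. GI50 marks 50% less growth. At the TGI there is no net growth.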 Some results are limits rather than exact numbers.

Regarding `CCOc1ccc(Cc2nccc3cc(OCC)c(OCC)cc23)cc1OCC`, the GI50 was 1.61 µM in the experiment on SK-MEL-5 melanoma; 3.01 µM in the experiment with HOP-62 NSCLC; 7.73 µM in the experiment on U251 CNS; 5.33 µM in the experiment on OVCAR-8 ovarian; 2.39 µM in the experiment on IGROV1 ovarian; 2.72 µM in the experiment with UACC-62 melanoma. For the same molecule, the GI50 is 2.9 µM in the experiment on LOX IMVI melanoma, 13.4 µM in the experiment with SNB-75 CNS, 0.29 µM in the experiment on HOP-92 NSCLC and 4.08 µM in the experiment on SN12C renal. Besides, the TGI with SK-MEL-5 melanoma is 4.19 µM; in the experiment with HOP-62 NSCLC, 20.9 µM; in the experiment on U251 CNS, 21.9 µM; in the experiment on OVCAR-8 ovarian it was 31.1 µM; with IGROV1 ovarian, 12.7 µM; in the experiment on UACC-62 melanoma it was 16.5 µM. The TGI in the experiment on LOX IMVI melanoma was 17 µM; in the experiment with SNB-75 CNS it was 41.9 µM; with HOP-92 NSCLC, 8.94 µM; in the experiment on SN12C renal, 22.3 µM.
`c1cncc(CNc2ccccc2-c2nnc(Nc3ccc4c(c3)OCO4)o2)c1`: the GI50 is 0.0449 µM in the experiment on SK-MEL-5 melanoma; 0.085 µM in the experiment with HOP-62 NSCLC; 0.0452 µM in the experiment on U251 CNS; 0.127 µM in the experiment with OVCAR-8 ovarian; 0.171 µM in the experiment with IGROV1 ovarian; 0.0542 µM in the experiment with UACC-62 melanoma. Further, the GI50 was 0.0547 µM with LOX IMVI melanoma, 0.0246 µM with SNB-75 CNS, 0.0904 µM in the experiment with HOP-92 NSCLC and 0.0994 µM in the experiment with SN12C renal. Further, the TGI was over 100 µM in the experiment with SK-MEL-5 melanoma; over 81 µM with HOP-62 NSCLC; over 42.8 µM with U251 CNS; over 100 µM in the experiment on OVCAR-8 ovarian; over 100 µM in the experiment with IGROV1 ovarian; over 100 µM in the experiment with UACC-62 melanoma. Further, the TGI in the experiment on LOX IMVI melanoma was over 100 µM; in the experiment with SNB-75 CNS, over 100 µM; in the experiment with HOP-92 NSCLC it was 28.9 µM; with SN12C renal it was over 100 µM.
As for `Cc1c2ccccc2c(C)c2c3c(ccc12)C(=O)C=CC3=O`, the TGI was over 79.3 µM in the experiment with SK-MEL-5 melanoma; over 90.9 µM with HOP-62 NSCLC; over 100 µM with U251 CNS; 28.7 µM in the experiment with OVCAR-8 ovarian; 55.5 µM in the experiment on IGROV1 ovarian; over 100 µM in the experiment on UACC-62 melanoma. For the same molecule, the TGI in the experiment with LOX IMVI melanoma was over 63.4 µM; in the experiment with SNB-75 CNS, over 100 µM; in the experiment with HOP-92 NSCLC it was 32.4 µM; with SN12C renal it was over 69.1 µM.
Regarding `C/C(CN1C(=O)c2ccccc2C1=O)=N\NS(=O)(=O)c1ccccc1`, the TGI with SK-MEL-5 melanoma, in the experiment on HOP-62 NSCLC, in the experiment on U251 CNS, in the experiment with OVCAR-8 ovarian, in the experiment with IGROV1 ovarian and with UACC-62 melanoma was over 100 µM throughout. Also, the TGI in the experiment with LOX IMVI melanoma, in the experiment on SNB-75 CNS, with HOP-92 NSCLC and in the experiment on SN12C renal was over 100 µM each time.
For the molecule `O=C1NC(=NCC(CO)c2ccccc2)S/C1=C\c1ccc2ncccc2c1` (stereo unspecified), the GI50 is over 25 µM with SK-MEL-5 melanoma; 23.9 µM in the experiment on HOP-62 NSCLC; 9.91 µM in the experiment on U251 CNS; over 25 µM in the experiment with OVCAR-8 ovarian; 19 µM with IGROV1 ovarian; over 25 µM in the experiment with UACC-62 melanoma. In addition, the GI50 with LOX IMVI melanoma is 17.4 µM; in the experiment with SNB-75 CNS, over 7 µM; with HOP-92 NSCLC, over 25 µM; with SN12C renal, 17.6 µM. The TGI in the experiment with SK-MEL-5 melanoma, with HOP-62 NSCLC, with U251 CNS, with OVCAR-8 ovarian, in the experiment with IGROV1 ovarian and with UACC-62 melanoma was over 25 µM in each case. Also, the TGI in the experiment on LOX IMVI melanoma, with SNB-75 CNS, with HOP-92 NSCLC and in the experiment on SN12C renal was over 25 µM each time.
Consider `CC1=C(N2CC2)C(=O)C(CO)=C(N2CC2)C1=O`, for which the GI50 is 0.0399 µM in the experiment with SK-MEL-5 melanoma; 0.0219 µM in the experiment with HOP-62 NSCLC; 0.0145 µM in the experiment on OVCAR-8 ovarian; 0.0168 µM in the experiment with IGROV1 ovarian; 0.00307 µM with LOX IMVI melanoma; 0.0183 µM and 0.018 µM with HOP-92 NSCLC. Also, the GI50 with SN12C renal is 0.0057 µM. Also, the TGI in the experiment on SK-MEL-5 melanoma was 0.162 µM and 0.312 µM; in the experiment with HOP-62 NSCLC, 0.0569 µM; with U251 CNS, 0.285 µM; in the experiment with OVCAR-8 ovarian it was 0.0701 µM and 0.0799 µM; with IGROV1 ovarian, 0.0703 µM and 0.0518 µM; in the experiment with UACC-62 melanoma it was 0.146 µM and 0.23 µM. In addition, the TGI in the experiment on LOX IMVI melanoma was 0.0226 µM and 0.187 µM; in the experiment with SNB-75 CNS, 0.38 µM; with HOP-92 NSCLC, 0.247 µM and 0.28 µM; in the experiment on SN12C renal it was 0.0367 µM and 0.139 µM.
For `CCCNc1nc(N(C)O)nc(N(C)O)n1`, the GI50 in the experiment on SK-MEL-5 melanoma was 1.6 µM; with HOP-62 NSCLC, 1.82 µM; with U251 CNS it was 0.955 µM; in the experiment on OVCAR-8 ovarian, 2.45 µM; in the experiment with IGROV1 ovarian, 2.13 µM; with UACC-62 melanoma, 3.09 µM. The GI50 in the experiment on LOX IMVI melanoma was 1.31 µM; in the experiment on SNB-75 CNS it was 16.4 µM; in the experiment with HOP-92 NSCLC, 4.75 µM; in the experiment on SN12C renal, 4.27 µM. Also, the TGI is 6.61 µM with SK-MEL-5 melanoma; 97.6 µM in the experiment with HOP-62 NSCLC; over 100 µM in the experiment on U251 CNS; over 100 µM in the experiment on OVCAR-8 ovarian; 14.6 µM in the experiment on IGROV1 ovarian; over 56.9 µM with UACC-62 melanoma. Moreover, the TGI in the experiment on LOX IMVI melanoma was over 100 µM; in the experiment on SNB-75 CNS, over 75.3 µM; in the experiment on HOP-92 NSCLC it was over 100 µM; in the experiment on SN12C renal it was over 100 µM.
Take `OC(c1cc(C(O)(C(F)(F)F)C(F)(F)F)ncn1)(C(F)(F)F)C(F)(F)F`: the TGI in the experiment with SK-MEL-5 melanoma, in the experiment on HOP-62 NSCLC, in the experiment on U251 CNS, in the experiment with OVCAR-8 ovarian, with IGROV1 ovarian and in the experiment with UACC-62 melanoma was over 10 µM throughout. The TGI with LOX IMVI melanoma, in the experiment on SNB-75 CNS, with HOP-92 NSCLC and with SN12C renal was over 10 µM each time.
On to `C=C1CC[C@@H]2C(C)(C)[C@@H](O)CC[C@@]2(C)[C@@H]1COc1ccc2ccc(=O)oc2c1`, for which the GI50 in the experiment with SK-MEL-5 melanoma was 5.68 µM; in the experiment with HOP-62 NSCLC, 15.2 µM; in the experiment with U251 CNS, 9.62 µM; in the experiment with IGROV1 ovarian, 15.1 µM; in the experiment on UACC-62 melanoma it was 10.2 µM; with LOX IMVI melanoma, 13.8 µM. The values for the GI50 with SNB-75 CNS, with HOP-92 NSCLC and in the experiment with SN12C renal were 10.9 µM, 8.62 µM and 14.1 µM, respectively. Also, the TGI with SK-MEL-5 melanoma was 18 µM; in the experiment with HOP-62 NSCLC, 35.6 µM; in the experiment on U251 CNS, 24.8 µM; in the experiment on OVCAR-8 ovarian, 78.7 µM; with IGROV1 ovarian, 31.9 µM; in the experiment on UACC-62 melanoma, 23.7 µM. In addition, the TGI in the experiment on LOX IMVI melanoma worked out at 27.7 µM; in the experiment with SNB-75 CNS it was 32.1 µM; with HOP-92 NSCLC it was 24.3 µM; in the experiment with SN12C renal, 30.8 µM.

The values are drawn from PubChem BioAssay (NCI).
